Measurements: patent US20060159829A1, “Consumer product for enhancing mental focus” (Conopco Inc, d/b/a UNILEVER, priority 2004, published 2006)

Key:
[1] = cited from earlier work
[2] = test system: spoilage yeasts or moulds; test: Antimicrobial effect of cinnamic acid at low and neutral pH; type: cell-based; conditions: 100 ppm

O=S(O)O [sulphite]
pKa [1]: 1.88

O=C(O)C=Cc1ccccc1 [cinnamic acid]
effect on growth of spoilage yeasts or moulds ([2]; neutral pH): entirely without effect | effect on growth of spoilage yeasts or moulds ([2]; pH 3.0): completely extinguish growth
